# Molecular target: T1, NBD1 (Homo sapiens, UniProt P13569)
# T1 construct: Purified recombinant NBD1 was produced using previously described methods; made in house
# Assay: Aggregation analysis using differential static light scattering (DSLS), thermal stability of NBD1 (ΔTagg)
# Format: binding
# Conditions: ΔTagg versus DMSO control, NBD1 0.2 mg/ml
# Description: Example 386. Aggregation Analysis Using Differential Static Light Scattering (DSLS)
# Purified recombinant NBD1 was produced using previously described methods (A. Schmidt, J. L. Mendoza, P. J. Thomas (2011) Biochemical and Biophysical Approaches to Probe CFTR Structure (365-376) M. D. Amaral, K. Kunzelmann (eds.), Cystic Fibrosis, Methods in Molecular Biology 741, Springer Science+Business Media). The effect of test compounds on thermal stability of NBD1 was evaluated by differential static light scattering (DSLS) using the Harbinger Stargazer-384 instrument (Epiphyte Three, Toronto, Canada). Test compounds were dissolved and diluted to desired concentrations in 100% DMSO. The compounds or DMSO controls (100 nL) were stamped into wells of a […] low volume optical plate (Corning Inc., Corning, NY) using the Echo 555 acoustic liquid handler (Labcyte Inc., San Jose, CA).
# NBD1 protein was diluted to 0.2 mg/ml in S200 buffer (50 mM Tris-HCl, 150 mM NaCl, 5 mM MgCl2, 2 mM ATP, 2 mM DTT, pH7.6) containing 1% glycerol. 10 uL of protein solution was aliquoted into the 384-well plate harboring the test compounds and 10 uL mineral oil was overlaid onto the protein solution, using the epMotion robotic liquid handler (Eppendorf North America, Hauppauge, NY). After placing into the Stargazer instrument, the plate was heated at 1° C. per minute to 70° C. Images were captured from 25° C. to 70° C. every 0.5° C. At the end of the experiment run, instrument software integrated image files and analyzed data automatically. A […] regression curve was generated for each well, representing the increase in light scattering over time. A temperature of aggregation (Tagg) was calculated based on the inflection point of the curve. To better compare data across experiments the average Tagg for DMSO control wells was calculated and subtracted from values for wells containing compounds to obtain a “ΔTagg” value. These ΔTagg values reflect stabilizing efficacy of the compounds. As set forth in Table 2 below, an ΔTagg value less than or equal to 5° C. is marked “A”; a value above 5° C. and less than or equal to 10° C. is marked “B”; a value greater than 10° C. and less than or equal to 25° C. is marked “C”.
# T1 sequence (P13569 423-646 limits assumed): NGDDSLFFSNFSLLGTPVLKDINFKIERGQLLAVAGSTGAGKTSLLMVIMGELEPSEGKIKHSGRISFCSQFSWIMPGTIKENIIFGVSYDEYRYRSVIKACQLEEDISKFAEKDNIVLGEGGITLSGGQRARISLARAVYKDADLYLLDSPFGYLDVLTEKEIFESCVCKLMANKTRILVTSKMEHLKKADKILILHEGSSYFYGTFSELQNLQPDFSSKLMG
row,SMILES,DSLS 3D (100 μM ΔT)
1,"C[C@@H](Cc1cccc(C2CCCC(C)(C)CS(=O)(=O)CCc3c(c(F)cc4[nH]ccc34)Oc3ccc(F)c(c3)-c3c(C#N)cnn32)c1)C(=O)O (mixture of isomers) [Compound 151, (2S)-3-[3-(3-Cyano-23,29-difluoro-11,11-dimethyl-13,13-dioxo-25-oxa-13λ6-thia-5,6,20-triazapentacyclo[24.3.1.02,6.016,24.017,21]triaconta-1(30),2,4,16,18,21,23,26,28-nonaen-7-yl)phenyl]-2-methyl-propanoic Acid]",A (an ΔTagg value less than or equal to 5 °C is marked “A”)
2,"C[C@@H](Cc1cccc(C2CCCC(C)(C)CS(=O)(=O)CCc3c(c(F)cc4[nH]ccc34)Oc3ccc(F)c(c3)-c3nn2cc3C#N)c1)C(=O)O (mixture of isomers) [Compound 152, (2S)-3-[3-(3-Cyano-22,28-difluoro-10,10-dimethyl-12,12-dioxo-24-oxa-12λ6-thia-5,19,30-triazapentacyclo[23.3.1.12,5.015,23.016,20]triaconta-1(29),2(30),3,15,17,20,22,25,27-nonaen-6-yl)phenyl]-2-methyl-propanoic Acid]",C (a value greater than 10 °C and less than or equal to 25 °C is marked “C”)
3,"C[C@H](Cc1cccc(C2NCC(F)(F)CCS(=O)(=O)CCc3c(c(F)c(F)c4[nH]ccc34)Oc3ccc(F)c(c3)-c3nc2nn3C)c1)C(=O)O (mixture of isomers) [Compound 380, (2R)-2-Methyl-3-[3-(9,9,21,22,28-pentafluoro-3-methyl-12,12-dioxo-24-oxa-12λ6-thia-3,4,7,19,30-pentazapentacyclo[23.3.1.12,5.015,23.016,20]triaconta-1(29),2(30),4,15,17,20,22,25,27-nonaen-6-yl)phenyl]propanoic Acid]",A (an ΔTagg value less than or equal to 5 °C is marked “A”)
4,"CC1(C)CS(=O)(=O)CCc2c(c(F)cc3[nH]ccc23)Oc2ccc(F)c(c2)-c2ccnn2C(c2cccc(CCC(=O)O)c2)CCO1 (single isomer, unassigned) [Compound 88, 3-[3-(23,29-Difluoro-11,11-dimethyl-13,13-dioxo-10,25-dioxa-13λ6-thia-5,6,20-triazapentacyclo[24.3.1.02,6.016,24.017,21]triaconta-1(30),2,4,16,18,21,23,26,28-nonaen-7-yl)phenyl]propanoic Acid]",A (an ΔTagg value less than or equal to 5 °C is marked “A”)
5,"Cn1nc2nc1-c1cc(ccc1F)Oc1c(F)cc3[nH]ccc3c1CCS(=O)(=O)CC(C)(C)COCC2(C)c1cccc(CCC(=O)O)c1 (single isomer, unassigned) [Compound 89A, 3-[3-(22,28-difluoro-3,6,10,10-tetramethyl-12,12-dioxo-8,24-dioxa-12λ6-thia-3,4,19,30-tetrazapentacyclo[23.3.1.12,5.015,23.016,20]triaconta-1(29),2(30),4,15,17,20,22,25,27-nonaen-6-yl)phenyl]propanoic Acid]",C (a value greater than 10 °C and less than or equal to 25 °C is marked “C”)
6,"Cn1nc2nc1-c1cc(ccc1F)Oc1c(F)cc3[nH]ccc3c1CCS(=O)(=O)CC(C)(C)COCC2(C)c1cccc(CCC(=O)O)c1 (single isomer, unassigned) [Compound 89B, 3-[3-(22,28-difluoro-3,6,10,10-tetramethyl-12,12-dioxo-8,24-dioxa-12λ6-thia-3,4,19,30-tetrazapentacyclo[23.3.1.12,5.015,23.016,20]triaconta-1(29),2(30),4,15,17,20,22,25,27-nonaen-6-yl)phenyl]propanoic Acid]",A (an ΔTagg value less than or equal to 5 °C is marked “A”)

# Reference: US12649750B2, “Macrocyclic compounds, compositions, and methods of using thereof” (Sionna Therapeutics Inc., priority 2022, dated 2026)
